From patent US20100305201A1 (The Trustees of the University of Pennsylvania, priority 2006, published 2010)

Experiments:
[1] = Maximum tolerated dose (MTD) determination; settings: nude mice, dose that causes 10% weight loss within 24 h (Example 3)
Description: (§1) Nrc nude mice were weighed followed by a single tail vein injection of either empty OCL3 micelles and TAX-loaded micelles in different concentrations at 0.2 ml per mouse. After 24 hours, the mice were weighed again. The “maximum tolerated dose” (MTD) was determined to be, and defined as, the dose that caused the mouse body weight loss<10%.

A549 tumor xenografts = experiment: Tumor study with single tail-vein injection (Example 3); settings: one week after single injection, 1 mg kg^−1 in ethanol (MTD)
Description: Briefly, cultured cells were injected subcutaneously onto the backs of nude mice and allowed to grow until they reached a mean size of 0.52 cm^2 (±0.02 em^2). […] Each group consisted of four mice.

in vivo = settings: Nrc nude, mouse
Description: as §1

[2] = test system: lung carcinoma A549 tumors; experiment: Tumor shrinkage study, multiple injections; format: in vivo, mice
Description: Tumor shrinkage studies. Human lung carcinoma cell line, A549, was injected subcutaneously at […] per mouse. […] The same injections were repeated after 3, 7, 10, 14, 17 and 21 days. Tumor area (A) was monitored 24 hrs after each injection by measuring two orthogonal dimensions as A=[(L1×L2)/2] for each treatment group. The body weight of the mice was also monitored throughout the experiment.
The tumor shrinkage effect of different carriers was also examined in a multiple-injection experiment. […] TAX in DPBS solution was also used for comparison, with the MTD of 1 mg/kg injected. […] It should be noted here that the weight gaining due to tumor growth (if possible) for all groups was minimal, wherein the largest tumor area gained after 3 weeks was 0.4 cm^2 (FIG. 6A), corresponding to an approximate volume of 0.2 cm^3 (assuming the tumor was spherical in shape). This would have contributed to only 0.2 g of the total weight (assuming the density of tumor is 1 g/ml).
To evaluate the tumor inhibition effect of the different TAX delivery methods in a more quantitative way, the TAX-inhibited tumor growth vs. time plot was fit by applying an exponential model (Simeoni et al., Cancer Res. 64:1094-101 (2004)), incorporating both a tumor growth phase and a tumor shrinkage phase with the TAX addition. The modeling was performed by fit the parameters in the equation (Table 4):
Tumor Area=Σ Ae^t/growth+Be^−t/shrink Equation 7
where t is the time (day), A and tgrowth are constants of the tumor growth phase, and B and tshrink are constants of the TAX-inhibition phase.

[3] = test system: Human lung-derived carcinoma cells A549; experiment: Cytotoxicity assay (MTT); format: cell-based; settings: 72 h, sigmoid dose-response fit
Description: Cytotoxicity Assay. TAX-loaded and drug-free micelles at serial dilutions were prepared as above. For comparison, 12 mg/ml TAX in ethanol was mixed with an equal volume of Cremophor® EL followed by sonication for 30 min. The resulting Cremophor EL TAX was diluted with DPBS to obtain desired TAX concentrations. Human lung-derived carcinoma cells A549 were grown in F12 Ham media supplemented with 10% fetal bovine serum and 100 U/ml penicillin and 100 μg/ml streptomycin at 37° C., 5% CO2 to 60-70% confluence. A549 cells (50,000 cell/ml) were seeded in 96-well plates at 5,000 cells per well and cultured for 24 h to allow attachment. […] As control, […] of DPBS was added to cells not exposed to those formulations. After 37° C., 5% CO2 incubation for 72 h, the media were discarded, and 100 μl/well F12 Ham medium and 11 μl/well of 5 mg/ml MTT solution in DPBS was added. The plates were incubated at 37° C. for 3 h and the media were removed again. The intracellular metabolized product MTT formazan was retrieved by addition of 100 μl/well DMSO and incubation at room temperature for 5 min. The plates were read at 550 nm, and the cell viability was calculated as (reading of wells with cells exposed to tested formulations minus the reading of the blank wells) divided by (reading of wells with cells exposed to DPBS minus the reading of the blank wells).
Data Analysis. […]

[4] = exponential model of TAX-inhibited A549 tumor area vs time, injections at MTD

## CC(=O)O[C@H]1C(=O)[C@@]2(C)[C@H]([C@H](OC(=O)c3ccccc3)[C@]3(O)C[C@H](OC(=O)[C@H](O)[C@@H](NC(=O)c4ccccc4)c4ccccc4)C(C)=C1C3(C)C)[C@]1(OC(C)=O)CO[C@@H]1C[C@@H]2O [TAX, Paclitaxel]
[1]
  maximum tolerated dose (MTD): 1 mg/kg
A549 tumor xenografts
  apoptosis in tumor (TUNEL-stained tumor sections): little effect
In vivo
  MTD at 24 h: 1 mg/kg
[2]; A549-bearing mice, multiple injections at MTD, 22 days
  tumor growth inhibition (in words): modest inhibition of tumor growth
[2]; [4]
  A, constant of the tumor growth phase: 0.014 cm^2
  B, constant of the TAX-inhibition phase: 0.178 cm^2
  tgrowth, constant of the tumor growth phase: 1.2 week
  tshrink, constant of the TAX-inhibition phase: 8.8 week
[3]
  IC50: 321 nM
